Assay [1] has as its target T1, Progesterone receptor (Homo sapiens, UniProt P06401).
T1 sequence (P06401 whole entry): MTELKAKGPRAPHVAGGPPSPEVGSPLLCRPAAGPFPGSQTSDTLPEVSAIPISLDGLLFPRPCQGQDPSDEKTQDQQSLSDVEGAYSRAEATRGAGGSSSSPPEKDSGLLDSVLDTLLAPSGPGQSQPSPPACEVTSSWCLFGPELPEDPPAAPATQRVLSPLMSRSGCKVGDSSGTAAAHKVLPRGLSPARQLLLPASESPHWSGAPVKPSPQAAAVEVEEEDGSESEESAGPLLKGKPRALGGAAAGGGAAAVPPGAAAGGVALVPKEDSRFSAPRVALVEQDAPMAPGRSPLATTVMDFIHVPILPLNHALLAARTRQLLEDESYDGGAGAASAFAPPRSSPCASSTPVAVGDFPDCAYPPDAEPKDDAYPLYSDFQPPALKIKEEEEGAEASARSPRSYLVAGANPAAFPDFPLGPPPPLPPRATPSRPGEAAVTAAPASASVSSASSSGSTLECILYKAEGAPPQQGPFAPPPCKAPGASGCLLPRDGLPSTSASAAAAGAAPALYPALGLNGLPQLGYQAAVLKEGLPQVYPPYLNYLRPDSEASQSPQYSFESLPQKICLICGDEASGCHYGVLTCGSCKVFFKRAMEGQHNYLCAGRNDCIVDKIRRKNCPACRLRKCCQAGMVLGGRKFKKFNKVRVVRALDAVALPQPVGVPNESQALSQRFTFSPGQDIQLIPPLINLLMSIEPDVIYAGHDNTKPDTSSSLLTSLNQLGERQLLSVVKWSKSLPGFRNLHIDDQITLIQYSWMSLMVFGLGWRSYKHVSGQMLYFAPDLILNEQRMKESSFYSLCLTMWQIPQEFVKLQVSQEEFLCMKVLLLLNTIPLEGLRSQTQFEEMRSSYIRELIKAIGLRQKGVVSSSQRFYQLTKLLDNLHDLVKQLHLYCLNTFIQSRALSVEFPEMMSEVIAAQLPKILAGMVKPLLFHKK
Briefly: Antagonist activity against human progesterone receptor (hPR) using cotransfection assay in CV-1 cells. The class given is functional, cell-based.

In assay [2] the target is T2, Mineralocorticoid receptor (Homo sapiens, UniProt P08235).
T2 sequence (P08235 whole entry): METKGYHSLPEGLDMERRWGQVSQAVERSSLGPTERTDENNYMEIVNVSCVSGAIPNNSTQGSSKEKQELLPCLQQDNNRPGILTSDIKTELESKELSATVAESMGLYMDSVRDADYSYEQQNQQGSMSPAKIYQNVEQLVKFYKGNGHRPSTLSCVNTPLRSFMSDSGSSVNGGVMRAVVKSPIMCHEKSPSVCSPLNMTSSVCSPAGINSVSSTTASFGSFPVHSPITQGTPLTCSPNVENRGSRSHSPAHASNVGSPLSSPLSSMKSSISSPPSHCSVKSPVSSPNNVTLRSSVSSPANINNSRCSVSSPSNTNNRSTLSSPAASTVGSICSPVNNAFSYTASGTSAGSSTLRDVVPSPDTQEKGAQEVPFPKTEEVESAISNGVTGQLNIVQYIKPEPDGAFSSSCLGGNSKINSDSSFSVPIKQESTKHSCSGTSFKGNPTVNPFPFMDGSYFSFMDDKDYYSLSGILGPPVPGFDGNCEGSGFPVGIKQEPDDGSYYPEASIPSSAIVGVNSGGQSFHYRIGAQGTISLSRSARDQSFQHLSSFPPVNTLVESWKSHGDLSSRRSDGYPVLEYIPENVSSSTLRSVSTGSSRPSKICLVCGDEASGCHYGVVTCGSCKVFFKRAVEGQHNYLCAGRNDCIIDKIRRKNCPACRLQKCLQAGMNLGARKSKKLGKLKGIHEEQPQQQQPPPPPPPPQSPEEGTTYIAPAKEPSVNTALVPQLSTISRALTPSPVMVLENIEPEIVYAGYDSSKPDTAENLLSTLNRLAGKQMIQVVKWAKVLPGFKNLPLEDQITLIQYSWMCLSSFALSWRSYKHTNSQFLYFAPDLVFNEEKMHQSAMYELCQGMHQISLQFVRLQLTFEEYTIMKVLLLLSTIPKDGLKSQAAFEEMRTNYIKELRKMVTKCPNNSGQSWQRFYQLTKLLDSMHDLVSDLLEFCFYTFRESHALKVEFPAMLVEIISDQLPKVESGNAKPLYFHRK
Put plainly: Cross-reactivity as binding to human mineralocorticoid receptor (hMR); NA=not active. The class given is functional.

The target of assay [3] is T3, Glucocorticoid receptor (Homo sapiens) (UniProt P04150).
T3 sequence (whole entry): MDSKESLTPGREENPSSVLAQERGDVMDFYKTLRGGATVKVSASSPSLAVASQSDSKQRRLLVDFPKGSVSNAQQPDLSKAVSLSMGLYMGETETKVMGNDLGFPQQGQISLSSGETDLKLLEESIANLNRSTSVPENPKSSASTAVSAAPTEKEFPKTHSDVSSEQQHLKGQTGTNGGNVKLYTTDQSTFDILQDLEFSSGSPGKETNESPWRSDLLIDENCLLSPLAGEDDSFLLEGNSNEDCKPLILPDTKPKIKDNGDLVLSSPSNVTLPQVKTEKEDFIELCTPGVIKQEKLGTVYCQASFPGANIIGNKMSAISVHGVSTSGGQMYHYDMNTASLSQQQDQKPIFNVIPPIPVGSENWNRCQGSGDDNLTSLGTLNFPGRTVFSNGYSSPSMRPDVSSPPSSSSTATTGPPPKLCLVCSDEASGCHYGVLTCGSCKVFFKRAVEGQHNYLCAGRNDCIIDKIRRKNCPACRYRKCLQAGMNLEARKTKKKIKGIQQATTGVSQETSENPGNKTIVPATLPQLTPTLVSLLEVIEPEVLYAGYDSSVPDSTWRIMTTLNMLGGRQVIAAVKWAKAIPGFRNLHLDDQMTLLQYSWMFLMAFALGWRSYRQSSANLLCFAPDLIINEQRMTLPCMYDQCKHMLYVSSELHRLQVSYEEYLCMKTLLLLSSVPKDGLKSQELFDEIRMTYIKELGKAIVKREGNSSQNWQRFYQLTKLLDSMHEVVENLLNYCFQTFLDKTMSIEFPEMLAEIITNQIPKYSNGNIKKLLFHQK
Briefly: Percent inhibition of glucocorticoid receptor transcriptional activity at Dexamethasone EC50; NA=not active. The assay is classed as functional.

The target in assay [4] is T4, Mineralocorticoid receptor (Homo sapiens) (UniProt P08235).
T4 sequence (whole entry): T2 sequence (P08235 whole entry)
Put plainly: Percent inhibition of mineralocorticoid receptor transcriptional activity at aldosterone EC50; NA=not active. The class given is functional.

Another assay deals with T5, Glucocorticoid receptor (Homo sapiens, UniProt P04150).
T5 sequence (P04150 whole entry): T3 sequence (whole entry)
Put plainly: Cross-reactivity as binding to human glucocorticoid receptor (hGR); NA=not active. The assay is classed as functional.

The target in assay [5] is T1, Progesterone receptor. Briefly: Antagonist activity against human progesterone receptor (hPR) in T47D human breast cancer cell line. The class given is functional, cell-based.

Structures are written as SMILES. Active and inactive are the calls of the source. The rule behind the calls is not given here.

What is called IC50 is the concentration that inhibits the measured activity by half. A high value points to weaker potency.

For the compound `CC1=CC(C)(C)Nc2ccc(-c3ccc([N+](=O)[O-])s3)cc21`, the half-inhibitory concentration (IC50) against Progesterone receptor [1] is 0.031 µM; in assay [2], “Not Active”; at Glucocorticoid receptor it was “Not Active”; on Progesterone receptor [5], 0.07 µM. Also, the Efficacy entry in assay [3] and in assay [4] was “inactive” each time.

These data come from ChEMBL document CHEMBL1133403 (Bioorg Med Chem Lett, 2000).
